What all share (format): cell-based, mouse
The test system of assay [1] is primary keratinocytes. Kind of assay: Morphological changes and detachment of primary keratinocytes. As to conditions: for alteration of cell morphology first detectable after: 10 nM staurosporine or 160 nM TPA, 0.05 mM Ca2+ medium.
Assay [2] deals with primary keratinocytes. The assay is described as follows: Epidermal transglutaminase activity in primary keratinocytes. As to conditions: 9 hours, 1.4 mM Ca2+ medium; for increase in epidermal transglutaminase activity: 8 day old cultures. As for the experimental part:
Enzyme Assays. Activity of epidermal transglutaminase was determined by measuring cross-linking of ^3H-putrescine to dimethylcasein (20). Cell lysates were incubated at […] for 10 minutes to inactivate tissue transglutaminase. Ornithine decarboxylase activity of cell lysates was determined by quantifying release of ^14CO2 from ^14C-ornithine (Sako, T. et al, “Partial parallelism and partial blockade by bryostatin 1 of effects of phorbol ester tumor promoters on primary mouse epidermal cells,” Cancer Res., 47: 5445–5450, 1987).
Epidermal transglutaminase activity is elevated in terminally differentiating keratinocytes both in vivo and in vitro. […] Control cultures (0 nM dose) were treated with 0.1% DMSO. Each point is the average of duplicate dishes with the range indicated by error bars.

In assay [3] the test system is SP-1 cells. Kind of assay: Epidermal transglutaminase activity in neoplastic keratinocytes. As to conditions: 24 hours.
Assay [4] concerns SP-1 cells. Kind of assay: Cornified envelope formation in SP-1 cells. As to conditions: 1.4 mM Ca2+ medium, 3 days. As for the experimental part: (§1) Cornified Envelope Quantitation. Keratinocytes were analyzed for cornified envelope formation as described (Nagae, S. et al, “Effect of retinoic acid on cornified envelope formation: difference between spontaneous envelope formation in vivo or in vitro and expression of envelope competence,” J. Invest., Dermatol., 89: 51–58, 1987), with minor modifications. Floating cells were harvested by collecting culture medium from each 60 mm dish and combining with two washes using phosphate-buffered saline without Ca^2+ and Ms^+2 (PBS). Cells were pelleted for 5 minutes at 1000 rpm in a benchtop clinical centrifuge and resuspended in 100 μl of lysis buffer (2% sodium dodecyl sulfate (SDS) and 20 mM dithiothreitol in PBS). Attached cells were harvested in 250 μl lysis buffer, combined with the preparation of floating cells, and incubated at 95° for 10 minutes. The non-solubilized, intact cornified envelopes, characteristic of terminally differentiated keratinocytes, were counted using a hemocytometer (Nagae, S. et al, “Effect of retinoic acid on cornified envelope formation: difference between spontaneous envelope formation in vivo or in vitro and expression of envelope competence,” J. Invest. Dermatol., 89: 51–58, 1987).
(§2) Cornified envelope formation was also determined in cultures of staurosporine-treated neoplastic cells. […]

Assay [5] deals with 308 cells. Kind of assay: Cornified envelope formation in 308 cells. To be noted: 1.4 mM Ca2+ medium, 3 days. The method, then:
as §1, §2

Assay [6] has as its system 308 cells. Kind of assay: Morphological differentiation of 308 neoplastic keratinocyte cell line. To be noted: for morphological changes: 24 hours, 10 nM staurosporine or 160 nM TPA.
For assay [7], the system named is SP-1 cells. The assay is described as follows: Morphological differentiation of SP-1 neoplastic keratinocyte cell line. To be noted: for morphological changes: 24 hours, 10 nM staurosporine or 160 nM TPA.
Another assay relates to c-fos mRNA. Kind of assay: c-fos mRNA Northern blot in primary keratinocytes. To be noted: for time of maximum c-fos mRNA expression: 8 hour treatment, medium with 0.5% serum. As for the experimental part: RNA Isolation and Northern Blot Analysis. RNA was isolated by ultracentrifugation of guanidine isothiocyanate lysates through a 5.7M cesium chloride gradient (Chirgwin, J. M. et al, “Isolation of biologically active ribonucleic acid from sources enriched in ribonuclease,” Biochemistry, 18: 5294–5299, 1979). 20 μg of total RNA was loaded per lane and electrophoresed through a 1% agarose gel containing 0.66 M formaldehyde (Davis, L. G. et al, “Basic Methods in Molecular Biology,” New York: Elsevier, 1986). RNA was blotted to reinforced nitrocellulose membrane (BA-S NC; Schleicher & Schuell, Keene, N.H.) and baked at 80° C. in a vacuum oven for 2 hours. Filter were pre-hybridized at 42° overnight in buffer containing 50% formamide as previously described (Yuspa, S. H. et al, “Expression of murine epidermal differentiation markers is tightly regulated by restricted extracellular calcium concentrations in vitro,” J. Cell Biol., 109: 1207–1217, 1989); approximately 20×10^6 dpm of probe was added and hybridization carried out overnight. The final wash performed at 65° using 0.2×SSC with 0.1% SDS. Filters were exposed to Kodak X-Omat AR film at −70° with intensifying screens. Mouse c-fos transcript was detected using a 1.2 kb Bg1 II to Sal I fragment from the Finkel-Biskis-Jinkins murine sarcoma virus sequence (Curran, T. et al, “Structure of the FBJ murine osteosarcoma virus genome: molecular cloning of the associated helper virus and the cellular homologue of the v-fos gene from mouse and human cells,” Mol. Cell. Biol., 3: 914–921, 1983). Following autoradiography, remaining probe was removed by washing in 1% glycerol in deionized water at 80° for 2 minutes (Davis, L. G. et al, “Basic Methods in Molecular Biology,” New York: Elsevier, 1986) and the filter was re-hybridized to a full-length rat glyceraldehyde phosphate dehydrogenase (GAPDH) cDNA in a pUC18 vector (Fort, P. et al, “Various rat adult tissues express only one major mRNA species from the glyceraldehydes-3-phosphate-dehydrogenase multigenic family,” Nucleic. Acids. Res., 13: 1431–1442, 1985). […]

The mark [8] stands for this setting: morphological response to staurosporine.
Where [9] appears, read: doses ranging from 1.6 nM to 16 uM.

As to `CN[C@@H]1C[C@H]2O[C@@](C)([C@@H]1OC)n1c3ccccc3c3c4c(c5c6ccccc6n2c5c31)C(=O)NC4` [staurosporine], the “alteration of cell morphology first detectable after” value in the assay on primary keratinocytes [1] turned out to be 20 minutes. Also, the “cells detached from the substrate” value in the assay on primary keratinocytes [1] (10 nM staurosporine, 24 hours) is on record as “nearly all cells”. Besides, the “treatment time required for a maximal response” value with primary keratinocytes [1] (setting [8]) was 24 h; with 308 cells [6] (setting [8]), “at least 48 hours”; in the assay with SP-1 cells [7] (setting [8]), “at least 48 hours”. The “increase in epidermal transglutaminase activity” value in the assay on primary keratinocytes [2] (10 nM) turned out to be 4 fold. Besides, the “dose to which induction of transglutaminase activity is restricted” value with primary keratinocytes [2] is 10 nM. Also, the “maximum induction of epidermal transglutaminase activity” value in the assay on SP-1 cells [3] (100 nM, 5 day old SP-1 cells) is 50 fold. The “induction of cornified envelopes” value came out at 10 fold in the assay on SP-1 cells [4] (10 nM staurosporine) and 60 fold with 308 cells [5] (10 nM staurosporine). The morphological changes entry in the assay on 308 cells [6] and in the assay with SP-1 cells [7] was “morphological changes similar to those seen in primary cells” each time. The “time of maximum c-fos mRNA expression” value in the assay on c-fos mRNA was determined as 8 h. For the same compound, in the assay on c-fos mRNA (staurosporine added just before TPA), the “c-fos mRNA expression on combined exposure with TPA” value is listed as “higher expression of c-fos MRNA than TPA alone”.
For the compound `CCCCCCCCCCCCCC(=O)O[C@@H]1[C@@H](C)[C@@]2(O)[C@@H](C=C(CO)C[C@]3(O)C(=O)C(C)=C[C@@H]23)[C@H]2C(C)(C)[C@]12OC(C)=O` [TPA, 12-0-tetradecanoylphorbol-13-acetate, reference compound], in the assay with primary keratinocytes [1], the “alteration of cell morphology first detectable after” value stood at 20 minutes. The “cells rounded-up and detached from the substrate” value in the assay with primary keratinocytes [1] (160 nM TPA, after 24 hours) is reported as “about 50%”. Besides, the “increase in epidermal transglutaminase activity” value with primary keratinocytes [2] (100 and 1000 nM) is on record as 5 fold. Further, the “effect on epidermal transglutaminase activity” value in the assay with SP-1 cells [3] (any dose ranging from 10 pM to 10 μM) is on record as “no detectable effect”. Moreover, the cornified envelope formation entry in the assay with SP-1 cells [4] (160 nM TPA) and in the assay with 308 cells [5] (160 nM TPA) was “not induced” in each case. For the same compound, the morphological changes result with 308 cells [6] and in the assay on SP-1 cells [7] was “does not appreciably alter the appearance” in each case. The inducing morphological differentiation entry in the assay on 308 cells [6] (setting [9]) and with SP-1 cells [7] (setting [9]) was “ineffective” throughout. Further, in the assay with c-fos mRNA, the “time of maximum c-fos mRNA expression” value stood at 6 h.

For the origin of these results see patent US7056908B2, “Pharmaceutical compositions and methods for preventing skin tumor formation and causing regression of existing tumors” (priority 1991, dated 2006).
